Columns and labels:
[1] = Tissue distribution in ICR mice (normal animals); assay type: in vivo
Description: ICR mice (male, 5 weeks old) were purchased from Japan SLC (Shizuoka, Japan) and acclimated for one week prior to use. The doses in the distribution experiments were as follows: ^211At-AAMT-O-Me-L (0.407 ± 0.005 MBq/mouse, 31.64 ± 0.76 g, n = 6), ^211At-AAMT-O-Me-D (0.351 ± 0.004 MBq/mouse, 31.44 ± 0.94 g, n = 6), ^211At-AAMT-O-Et-L (0.685 ± 0.010 MBq/mouse, 24.14 ± 3.31 g, n = 6), ^211At-AAMT-O-Pr-L (1.09 ± 0.06 MBq/mouse, 26.33 ± 0.39 g, n = 6)

[2] = test system: PANC-1 tumor model; assay: Tissue distribution in nude mice (PANC-1 tumor model); assay type: in vivo, BALB/c nu/nu mice; conditions: nude mice (PANC-1 tumor model)
Description: BALB/c nu/nu mice (male, 5 weeks old) were purchased from Japan SLC (Shizuoka, Japan) and subcutaneously transplanted at a density of 1 × 10^7 cells/mouse. PANC-1 cells that reached the logarithmic growth phase were transplanted subcutaneously by mixing a 1 × 10^8 cells/mL cell suspension with an equivalent volume of Matrigel (Corning, Corning, NY, USA) to obtain 1 × 10^7 cells per mouse. Experiments were performed after the size of the transplanted tumor had exceeded 50 mm^3. The doses in the distribution experiments were as follows: ^211At-AAMT-OH-L (0.501 ± 0.011 MBq/mouse, 19.91 ± 0.59 g, n = 3) and ^211At-AAMT-O-Me-L (0.384 ± 0.003 MBq/mouse, 19.18 ± 0.38 g, n = 6 for Table 3), ^211At-AAMT-O-Me-L (158.10 ± 2.94 kBq/mouse, 19.27 ± 0.64 g, n = 6) and ^211At-AAMT-O-Me-D (135.08 ± 2.35 kBq/mouse, 18.64 ± 0.97 g, n = 6), ^211At-AAMT-O-Et-L (0.682 ± 0.011 MBq/mouse, 20.25 ± 1.41 g, n = 6), ^211At-AAMT-O-Pr-L (0.927 ± 0.020 MBq/mouse, 21.74 ± 0.37 g, n = 6).

[3] = test system: LAT1-Tet/HEK293 cells; assay: Uptake versus LAT1 expression level (Dox-induced) in LAT1-Tet/HEK293 cells; assay type: cell-based; conditions: collection 30 min after treatment
Description: Each cell line was seeded in 24 wells at 1 × 10^5 cells/mL and allowed to become sub-confluent on the day of the experiment. Cells were washed with PBS (-) (Fujifilm Wako Pure Chemical, Osaka, Japan) prior to the addition of the compound, which was then replaced with uptake buffer. After treating the cells with the same dose, they were collected at predetermined time points. The cell dose was measured using a γ-counter (Wizard^2 2480; PerkinElmer, Waltham, MA, USA), and the protein content of the sample was determined. Protein content was measured using the BCA method, and the dose was corrected using the protein content (Protein Assay BCA kit, Fujifilm Wako Pure Chemical).
Figure 2 Comparison of uptake between the labeled compounds. (A) Relation between uptake ratio and LAT1 expression level. Uptake ratios were compared between LAT1-Tet/HEK293 cells. The Y-axis represents the uptake ratio, and the X-axis is concentration of Doxycycline (Dox) (TaKaRa Bio, Shiga, Japan). The collection time was 30 min after treatment. The expression of LAT1 increased with increasing amounts of Dox. (B) Comparison of uptake in PANC-1 cell line. The collection times were 0.5, 1, 5 and 10 min after treatment.
The PANC-1 cell line was obtained from the RIKEN Cell Bank and maintained in RPMI 1640 medium (Fujifilm Wako Pure Chemical, Osaka, Japan) supplemented with 10% inactivated fetal bovine serum (Thermo Fisher Scientific, Waltham, MA, USA). Mock/HEK293, LAT1/HEK293, and LAT2/HEK203 cells were kindly provided by Dr. Kanai. Cell lines controlling LAT1 expression were constructed using the Tet-on system. HEK293 cells were obtained from the RIKEN Cell Bank and maintained in E-MEM (Fujifilm Wako Pure Chemical) supplemented with 10% inactivated fetal bovine serum (Thermo Fisher Scientific) and non-essential amino acids (Fujifilm Wako Pure Chemical). The expression vectors were purchased from VectorBuilder, Inc. (Kanagawa, Japan). The purified viral particle genes were transfected into HEK293 cells. Drug selection and cloning of the cell line (Tet-LAT1/HEK293) were performed. […]

CCOc1ccc(C[C@](C)(N)C(=O)O)cc1[211At] [^211At-AAMT-O-Et-L]
Tissue distribution, Bladder ([1]; 1 h after injection): 53.22 ± 43.79 %ID/g
Tissue distribution, Blood ([1]; 1 h after injection): 2.03 ± 0.61 %ID/g
Tissue distribution, Bone ([1]; 1 h after injection): 0.71 ± 0.32 %ID/g
Tissue distribution, Brain ([1]; 1 h after injection): 0.37 ± 0.07 %ID/g
Tissue distribution, Cecum ([1]; 1 h after injection): 0.68 ± 0.25 %ID/g
Tissue distribution, Colon ([1]; 1 h after injection): 8.32 ± 4.87 %ID/g
Tissue distribution, Heart ([1]; 1 h after injection): 6.14 ± 3.75 %ID/g
Tissue distribution, Kidney ([1]; 1 h after injection): 4.70 ± 1.68 %ID/g
Tissue distribution, Liver ([1]; 1 h after injection): 1.41 ± 0.33 %ID/g
Tissue distribution, Lung ([1]; 1 h after injection): 4.47 ± 1.34 %ID/g
Tissue distribution, Pancreas ([1]; 1 h after injection): 7.31 ± 4.45 %ID/g
Tissue distribution, Salivary glands ([1]; 1 h after injection): 7.08 ± 2.00 %ID/g
Tissue distribution, Small intestine ([1]; 1 h after injection): 12.85 ± 7.35 %ID/g
Tissue distribution, Spleen ([1]; 1 h after injection): 2.90 ± 0.95 %ID/g
Tissue distribution, Stomach ([1]; 1 h after injection): 19.50 ± 5.82 %ID/g
Tissue distribution, Testis ([1]; 1 h after injection): 2.36 ± 0.28 %ID/g
Tissue distribution, Thymus ([1]; 1 h after injection): 1.14 ± 0.68 %ID/g
Tissue distribution, Thyroid ([1]; 1 h after injection): 8.98 ± 4.12 %ID/g
Tissue distribution, Bladder ([1]; 3 h after injection): 21.28 ± 15.54 %ID/g
Tissue distribution, Blood ([1]; 3 h after injection): 0.87 ± 0.27 %ID/g
Tissue distribution, Bone ([1]; 3 h after injection): 1.00 ± 0.18 %ID/g
Tissue distribution, Brain ([1]; 3 h after injection): 0.13 ± 0.05 %ID/g
Tissue distribution, Cecum ([1]; 3 h after injection): 1.67 ± 0.24 %ID/g
Tissue distribution, Colon ([1]; 3 h after injection): 1.75 ± 0.49 %ID/g
Tissue distribution, Heart ([1]; 3 h after injection): 1.87 ± 0.80 %ID/g
Tissue distribution, Kidney ([1]; 3 h after injection): 1.56 ± 0.13 %ID/g
Tissue distribution, Liver ([1]; 3 h after injection): 1.06 ± 0.21 %ID/g
Tissue distribution, Lung ([1]; 3 h after injection): 4.93 ± 1.95 %ID/g
Tissue distribution, Pancreas ([1]; 3 h after injection): 1.20 ± 0.40 %ID/g
Tissue distribution, Salivary glands ([1]; 3 h after injection): 15.05 ± 7.81 %ID/g
Tissue distribution, Small intestine ([1]; 3 h after injection): 3.21 ± 0.88 %ID/g
Tissue distribution, Spleen ([1]; 3 h after injection): 2.09 ± 1.08 %ID/g
Tissue distribution, Stomach ([1]; 3 h after injection): 38.74 ± 10.11 %ID/g
Tissue distribution, Testis ([1]; 3 h after injection): 1.20 ± 0.36 %ID/g
Tissue distribution, Thymus ([1]; 3 h after injection): 0.26 ± 0.17 %ID/g
Tissue distribution, Thyroid ([1]; 3 h after injection): 20.22 ± 6.28 %ID/g
Tissue distribution, Bladder ([2]; 1 h after injection): 15.41 ± 4.39 %ID/g
Tissue distribution, Blood ([2]; 1 h after injection): 3.63 ± 0.43 %ID/g
Tissue distribution, Bone ([2]; 1 h after injection): 1.92 ± 0.21 %ID/g
Tissue distribution, Brain ([2]; 1 h after injection): 0.65 ± 0.11 %ID/g
Tissue distribution, Cecum ([2]; 1 h after injection): 2.36 ± 0.52 %ID/g
Tissue distribution, Colon ([2]; 1 h after injection): 3.80 ± 0.50 %ID/g
Tissue distribution, Heart ([2]; 1 h after injection): 4.41 ± 0.46 %ID/g
Tissue distribution, Kidney ([2]; 1 h after injection): 6.23 ± 0.94 %ID/g
Tissue distribution, Liver ([2]; 1 h after injection): 2.54 ± 0.28 %ID/g
Tissue distribution, Lung ([2]; 1 h after injection): 9.69 ± 1.20 %ID/g
Tissue distribution, Pancreas ([2]; 1 h after injection): 4.56 ± 0.82 %ID/g
Tissue distribution, Salivary glands ([2]; 1 h after injection): 13.69 ± 2.13 %ID/g
Tissue distribution, Small intestine ([2]; 1 h after injection): 4.80 ± 0.63 %ID/g
Tissue distribution, Spleen ([2]; 1 h after injection): 10.32 ± 4.17 %ID/g
Tissue distribution, Stomach ([2]; 1 h after injection): 33.25 ± 8.36 %ID/g
Tissue distribution, Testis ([2]; 1 h after injection): 3.29 ± 0.07 %ID/g
Tissue distribution, Thyroid ([2]; 1 h after injection): 24.50 ± 4.40 %ID/g
Tissue distribution, Tumor ([2]; 1 h after injection): 5.64 ± 0.91 %ID/g
Tissue distribution, Bladder ([2]; 3 h after injection): 12.03 ± 3.42 %ID/g
Tissue distribution, Blood ([2]; 3 h after injection): 2.23 ± 0.06 %ID/g
Tissue distribution, Bone ([2]; 3 h after injection): 1.41 ± 0.16 %ID/g
Tissue distribution, Brain ([2]; 3 h after injection): 0.36 ± 0.10 %ID/g
Tissue distribution, Cecum ([2]; 3 h after injection): 2.80 ± 0.56 %ID/g
Tissue distribution, Colon ([2]; 3 h after injection): 3.63 ± 0.34 %ID/g
Tissue distribution, Heart ([2]; 3 h after injection): 5.15 ± 0.95 %ID/g
Tissue distribution, Kidney ([2]; 3 h after injection): 3.74 ± 0.78 %ID/g
Tissue distribution, Liver ([2]; 3 h after injection): 1.93 ± 0.23 %ID/g
Tissue distribution, Lung ([2]; 3 h after injection): 10.67 ± 1.28 %ID/g
Tissue distribution, Pancreas ([2]; 3 h after injection): 2.01 ± 0.20 %ID/g
Tissue distribution, Salivary glands ([2]; 3 h after injection): 19.70 ± 2.93 %ID/g
Tissue distribution, Small intestine ([2]; 3 h after injection): 3.23 ± 0.22 %ID/g
Tissue distribution, Spleen ([2]; 3 h after injection): 13.31 ± 2.43 %ID/g
Tissue distribution, Stomach ([2]; 3 h after injection): 18.47 ± 2.59 %ID/g
Tissue distribution, Testis ([2]; 3 h after injection): 3.32 ± 0.33 %ID/g
Tissue distribution, Thyroid ([2]; 3 h after injection): 31.26 ± 11.36 %ID/g
Tissue distribution, Tumor ([2]; 3 h after injection): 5.24 ± 1.39 %ID/g
Uptake ratio versus LAT1 expression (doxycycline concentration) [3]: lower cellular uptake when LAT1 expression increased

C[C@](N)(Cc1ccc(O)c([211At])c1)C(=O)O [^211At-AAMT-OH-L, 3-[^211At] Astato-α-methyl-L-tyrosine]
Tissue distribution, Bladder ([2]; 24 h after injection): 1.01 ± 0.10 %ID/g
Tissue distribution, Blood ([2]; 24 h after injection): 0.04 ± 0.02 %ID/g
Tissue distribution, Bone ([2]; 24 h after injection): 4.29 ± 3.90 %ID/g
Tissue distribution, Brain ([2]; 24 h after injection): 0.68 ± 0.16 %ID/g
Tissue distribution, Cecum ([2]; 24 h after injection): 6.60 ± 2.78 %ID/g
Tissue distribution, Colon ([2]; 24 h after injection): 1.03 ± 0.34 %ID/g
Tissue distribution, Heart ([2]; 24 h after injection): 2.29 ± 1.20 %ID/g
Tissue distribution, Kidney ([2]; 24 h after injection): 0.07 ± 0.02 %ID/g
Tissue distribution, Liver ([2]; 24 h after injection): 1.02 ± 0.60 %ID/g
Tissue distribution, Lung ([2]; 24 h after injection): 1.90 ± 0.55 %ID/g
Tissue distribution, Pancreas ([2]; 24 h after injection): 2.39 ± 2.03 %ID/g
Tissue distribution, Salivary glands ([2]; 24 h after injection): 0.42 ± 0.17 %ID/g
Tissue distribution, Small intestine ([2]; 24 h after injection): 0.09 ± 0.01 %ID/g
Tissue distribution, Spleen ([2]; 24 h after injection): 0.72 ± 0.22 %ID/g
Tissue distribution, Stomach ([2]; 24 h after injection): 1.84 ± 0.81 %ID/g
Tissue distribution, Testis ([2]; 24 h after injection): 0.57 ± 0.44 %ID/g
Tissue distribution, Thyroid ([2]; 24 h after injection): 11.65 ± 4.36 %ID/g
Tissue distribution, Tumor ([2]; 24 h after injection): 0.71 ± 0.46 %ID/g
Amount remaining in cecum relative to ^211At-AAMT-O-Me-L ([2]; after 24 h): 3.2 fold
Amount remaining in femur, including the bone marrow, relative to ^211At-AAMT-O-Me-L ([2]; after 24 h): 5.7 fold
Amount remaining in pancreas relative to ^211At-AAMT-O-Me-L ([2]; after 24 h): 4.1 fold
Amount remaining in thyroid relative to ^211At-AAMT-O-Me-L ([2]; after 24 h): 5.2 fold

Source: article PMC11594329, “Development of LAT1-Selective Nuclear Medicine Therapeutics Using Astatine-211” (International Journal of Molecular Sciences, 2024)
